Laboratory results taken from ChEMBL document CHEMBL3217504, “Potent growth inhibitory activity of ()-platencin towards multi-drug-resistant and extensively drug-resistant Mycobacterium tuberculosis” (2013).
≈ marks a conversion by molar mass, not a printed value.

Columns and labels:
Assay type in all cases: functional
[1] = tested on: Mycolicibacterium smegmatis; experiment: Antimycobacterial activity against Mycobacterium smegmatis ICHO1019 overexpressing FabH
[2] = tested on: Mycolicibacterium smegmatis; experiment: Antimycobacterial activity against Mycobacterium smegmatis ICHO1017 overexpressing KasA
[3] = tested on: Mycolicibacterium smegmatis; experiment: Antimycobacterial activity against Mycobacterium smegmatis ICHO1018 overexpressing KasB
[4] = tested on: Mycolicibacterium smegmatis; experiment: Antimycobacterial activity against Mycobacterium smegmatis MC2 155 under hypoxic condition after 96 hrs; settings: str. MC2 155, 96 h
[5] = tested on: Mycobacterium tuberculosis; experiment: Ratio of MBC99.9 to MIC for Mycobacterium tuberculosis H37Rv ATCC 27294
[6] = tested on: Mycobacterium tuberculosis; experiment: Ratio of MBC99.9 to MIC for Mycobacterium tuberculosis LV54
[7] = tested on: Mycobacterium tuberculosis; experiment: Antimycobacterial activity against Mycobacterium tuberculosis LV54 by microbroth dilution method
[8] = tested on: Mycolicibacterium smegmatis; experiment: Antimycobacterial activity against Mycobacterium smegmatis ICHO1001 harboring pMV261
[9] = tested on: Mycolicibacterium smegmatis; experiment: Selectivity ratio of MIC for Mycobacterium smegmatis ICHO1018 overexpressing KasB to MIC for wild-type Mycobacterium smegmatis MC2 155
[10] = tested on: Mycobacterium tuberculosis; experiment: Antimycobacterial activity against Mycobacterium tuberculosis H37Rv ATCC 27294 by microbroth dilution method
[11] = tested on: Mycolicibacterium smegmatis; experiment: Antimycobacterial activity against wild-type Mycobacterium smegmatis MC2 155; settings: str. MC2 155
[12] = tested on: Mycolicibacterium smegmatis; experiment: Antimycobacterial activity against Mycobacterium smegmatis MC2 155 under aerobic condition after 48 hrs by MTT assay; settings: str. MC2 155, 48 h

SMILES | MIC [1] | MIC [2] | MIC [3] | MIC [4] | Ratio [5] | Ratio [6] | MIC [7] | MIC [8] | Ratio [9] | MIC [10] | MIC [11] | MIC [12]
C=C1C[C@@]23C=CC(=O)[C@@](C)(CCC(=O)Nc4c(O)ccc(C(=O)O)c4O)[C@@H]2C[C@@H]1CC3 (racemic) [PLATENCIN] | 1 mg/L (≈ 2.35 µM) | 1 mg/L (≈ 2.35 µM) | > 8.5 mg/L | 0.3 mg/L (≈ 0.705 µM) | >64 | >64 | 1 mg/L (≈ 2.35 µM) | 0.5 mg/L (≈ 1.18 µM) | >17 | 2 mg/L (≈ 4.7 µM) | 0.5 mg/L (≈ 1.18 µM) | 0.5 mg/L (≈ 1.18 µM)
NNC(=O)c1ccncc1 [ISONIAZID] | – | – | – | 25 mg/L (≈ 182 µM) | – | – | – | – | – | – | – | 2.5 mg/L (≈ 18.2 µM)
